Counter-ions that a name gives are not always drawn.
Legend:
Type in all cases: cell-based
HIV-1 NL4-3 strain (WT) = experiment: microbe, parasite or virus in culture; settings: Human immunodeficiency virus 1, NL43; WT, MAGIC-5 cells, Table S1; read-out: EC50
Experimental: (§1) Susceptibilities to various RT inhibitors were determined using the MAGIC-5 cells which are HeLa cells stably transfected with a β-galactosidase gene under the control of an HIV long terminal repeat promoter, and with vectors that express the CD4 receptor and the CCR5 co-receptor under the control of the CMV promoter as described previously. Briefly, MAGIC-5 cells were infected with diluted virus stock (100 blue forming units) in the presence of increasing concentrations of RT inhibitors, cultured for 48 h, fixed, and stained with X-Gal (5-bromo-4-chloro-3-indolyl-β-D-galacto-pyranoside). The stained cells were counted under a light microscope.

[1] = system: HIV-1 clinical isolate 1 (Q151Mc-containing); experiment: Single-cycle drug susceptibility assay (MAGIC-5 cells), clinical isolate 1; settings: Human immunodeficiency virus 1; clinical isolate 1, MAGIC-5 cells
Experimental: (§2) HIV was isolated from fresh plasma immediately after collection of clinical samples from study participants at the outpatient clinic of the AIDS Clinical Center (ACC), International Medical Center of Japan. The Institutional Review Board approved this study (IMCJ-H13-80) and a written consent was obtained from all participants.
as §1

[2] = system: HIV-1 clinical isolate 2 (Q151Mc + K70Q); experiment: Single-cycle drug susceptibility assay (MAGIC-5 cells), clinical isolate 2; settings: Human immunodeficiency virus 1; clinical isolate 2, MAGIC-5 cells
Experimental: as §2, §1

HIV-1 WT = experiment: Single-cycle drug susceptibility assay (MAGIC-5 cells), recombinant WT clone; settings: Human immunodeficiency virus 1, Table S2
Experimental: (§3) The NL4-3-based molecular clone was constructed by replacing the pol-coding region with the HIV-1 BH10 strain. […] Each molecular clone was transfected into COS-7 cells. Cells were grown for 48 h, and culture supernatants were harvested and stored at −80°C until use.
as §1

HIV-1 K70E = experiment: Single-cycle drug susceptibility assay (MAGIC-5 cells)
Experimental: as §3, §1

HIV-1 K70G = experiment: as above
Experimental: as §3, §1

HIV-1 K70N = experiment: as above
Experimental: as §3, §1

HIV-1 K70Q = experiment: as above; settings: Human immunodeficiency virus 1, MAGIC-5; K70Q
Experimental: as §3, §1

HIV-1 K70R = experiment: as above
Experimental: as §3, §1

HIV-1 K70T = experiment: as above
Experimental: as §3, §1

HIV-1 Q151Mc/K70E = experiment: as above
Experimental: as §3, §1

HIV-1 Q151Mc/K70G = experiment: as above
Experimental: as §3, §1

HIV-1 Q151Mc/K70N = experiment: as above
Experimental: as §3, §1

HIV-1 Q151Mc/K70Q = experiment: as above
Experimental: as §3, §1

HIV-1 Q151Mc/K70R = experiment: as above
Experimental: as §3, §1

HIV-1 Q151Mc/K70T = experiment: as above
Experimental: as §3, §1

HIV-1 Q151Mc = experiment: as above; settings: Human immunodeficiency virus 1, MAGIC-5
Experimental: as §3, §1

Cc1ccnc2c1NC(=O)c1cccnc1N2C1CC1 [NVP, nevirapine]
EC50 (HIV-1 NL4-3 strain (WT)): 50 ± 4 nM | EC50 [1]: > 10000 nM | EC50 [2]: > 10000 nM

CC(C)OC(=O)OCOP(=O)(CO[C@H](C)Cn1cnc2c(N)ncnc21)OCOC(=O)OC(C)C [TFV-DF, tenofovir disoproxil fumarate]
EC50 (HIV-1 NL4-3 strain (WT)): 20 ± 3 nM | EC50 [1]: 40 ± 10 nM | EC50 [2]: 120 ± 20 nM | EC50 (HIV-1 WT): 20 ± 4 nM | EC50 (HIV-1 K70E; Human immunodeficiency virus 1, MAGIC-5, K70E): 20 ± 3 nM | Fold increase in EC50 compared to HIV-1 WT (HIV-1 K70E; K70E vs WT): (1) fold | EC50 (HIV-1 K70G; Human immunodeficiency virus 1, MAGIC-5, K70G): 20 ± 3 nM | Fold increase in EC50 compared to HIV-1 WT (HIV-1 K70G; K70G vs WT): (1) fold | EC50 (HIV-1 K70N; Human immunodeficiency virus 1, MAGIC-5, K70N): 20 ± 3 nM | Fold increase in EC50 compared to HIV-1 WT (HIV-1 K70N; K70N vs WT): (1) fold | EC50 (HIV-1 K70Q): 30 ± 3 nM | EC50 (HIV-1 K70R; Human immunodeficiency virus 1, MAGIC-5, K70R): 20 ± 2 nM | Fold increase in EC50 compared to HIV-1 WT (HIV-1 K70R; K70R vs WT): (1) fold | EC50 (HIV-1 K70T; Human immunodeficiency virus 1, MAGIC-5, K70T): 20 ± 3 nM | Fold increase in EC50 compared to HIV-1 WT (HIV-1 K70T; K70T vs WT): (1) fold | EC50 (HIV-1 Q151Mc/K70E; Human immunodeficiency virus 1, MAGIC-5, Q151Mc/K70E): 30 ± 1 nM | Fold increase in EC50 compared to HIV-1 Q151Mc (HIV-1 Q151Mc/K70E; Q151Mc/K70E vs Q151Mc): (0.8) fold | EC50 (HIV-1 Q151Mc/K70G; Human immunodeficiency virus 1, MAGIC-5, Q151Mc/K70G): 40 ± 2 nM | Fold increase in EC50 compared to HIV-1 Q151Mc (HIV-1 Q151Mc/K70G; Q151Mc/K70G vs Q151Mc): (1) fold | EC50 (HIV-1 Q151Mc/K70N; Human immunodeficiency virus 1, MAGIC-5, Q151Mc/K70N): 60 ± 4 nM | Fold increase in EC50 compared to HIV-1 Q151Mc (HIV-1 Q151Mc/K70N; Q151Mc/K70N vs Q151Mc): (1.5) fold | EC50 (HIV-1 Q151Mc/K70Q; Human immunodeficiency virus 1, MAGIC-5, Q151Mc/K70Q): 200 ± 10 nM | Resistance (fold less susceptible than WT HIV-1) (HIV-1 Q151Mc/K70Q; K70Q/Q151Mc vs WT HIV-1): 10 fold | EC50 (HIV-1 Q151Mc/K70R; Human immunodeficiency virus 1, MAGIC-5, Q151Mc/K70R): 30 ± 2 nM | Fold increase in EC50 compared to HIV-1 Q151Mc (HIV-1 Q151Mc/K70R; Q151Mc/K70R vs Q151Mc): (0.8) fold | EC50 (HIV-1 Q151Mc/K70T; Human immunodeficiency virus 1, MAGIC-5, Q151Mc/K70T): 50 ± 1 nM | Fold increase in EC50 compared to HIV-1 Q151Mc (HIV-1 Q151Mc/K70T; Q151Mc/K70T vs Q151Mc): (1.3) fold | EC50 (HIV-1 Q151Mc): 40 ± 3 nM
